These results are taken from US20230265151A1, “GIP/GLP1 CO-AGONIST COMPOUNDS” (priority 2020, published 2023).

Holding throughout (type): cell-based
In experiment [1] the target is hGLP-1R (Homo sapiens, UniProt P43220). Kind of experiment: Functional cAMP formation (HTRF) in HEK-293 clonal cells expressing hGLP-1R, 0.1% bovine casein, without or with 1.0% human serum albumin. The conditions noted are these: for EC50: hGLP-1R EC50, nM (SEM, n), geometric mean. The arrangement: expressed in transfected cells. In outline: (§1)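 Cells were stimulated with peptide for 30 min at 37° C, then lysed in buffer carrying cAMP-d2 and anti-cAMP Eu3+-cryptate for a competitive HTRF read after at least 60 min at room temperature. The 665/620 nm ratio was converted to nM cAMP against a standard curve.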

Experiment [2] addresses T1, hGIPR (Homo sapiens, UniProt P48546).
T1 construct: expressed in transfected cells
T1 sequence (P48546 22-466): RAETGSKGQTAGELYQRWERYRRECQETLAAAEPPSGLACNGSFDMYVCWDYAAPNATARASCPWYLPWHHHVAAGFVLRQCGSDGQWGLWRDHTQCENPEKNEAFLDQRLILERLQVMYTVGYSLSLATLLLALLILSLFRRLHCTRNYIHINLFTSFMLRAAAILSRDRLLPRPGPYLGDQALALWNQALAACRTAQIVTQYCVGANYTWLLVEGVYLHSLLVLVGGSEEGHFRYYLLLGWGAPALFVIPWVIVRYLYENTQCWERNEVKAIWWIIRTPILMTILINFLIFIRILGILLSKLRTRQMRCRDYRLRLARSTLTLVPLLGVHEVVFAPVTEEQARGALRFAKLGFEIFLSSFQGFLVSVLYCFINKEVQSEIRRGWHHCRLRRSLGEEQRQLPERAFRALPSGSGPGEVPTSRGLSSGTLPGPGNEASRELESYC
Kind of experiment: Functional cAMP formation (HTRF) in HEK-293 clonal cells expressing hGIPR, 0.1% bovine casein, without or with 1.0% human serum albumin. The conditions noted are these: for EC50: hGIPR EC50, nM (SEM, n), geometric mean. In outline: as §1

Experiment [3] has as its target T2, hGCGR (Homo sapiens, UniProt P47871).
T2 construct: expressed in transfected cells
Kind of experiment: Functional cAMP formation (HTRF) in HEK-293 clonal cells expressing hGCGR, 0.1% bovine casein, without or with 1.0% human serum albumin. The conditions noted are these: geometric mean. The essentials: as §1
For orientation: cAMP levels reflect the balance of adenylyl cyclase and phosphodiesterase activity.

[4] abbreviates: HEK293, read-out: hGLP-1R Emax, % ± SEM, 0.1% bovine casein and 1.0% human serum albumin, 37° C., percent of maximal response to GLP-1(7-36)NH2.
Where [5] appears, read: cAMP, 37° C., 0.1% bovine casein (no human serum albumin).
Where [6] appears, read: hGCGR EC50, nM (SEM, n), 0.1% bovine casein and 1.0% human serum albumin, 37° C.
[7] abbreviates: hGCGR EC50, nM (SEM, n), cAMP, 37° C., 0.1% bovine casein (no human serum albumin).
Setting [8] is: HEK293, read-out: hGIPR Emax, % ± SEM, 0.1% bovine casein and 1.0% human serum albumin, 37° C., percent of maximal response to GIP(1-42)NH2.
Setting [9] is: 0.1% bovine casein and 1.0% human serum albumin, 37° C.

Each structure is given as a SMILES string. Read-outs that look alike come from different tables or passages of the source.

T2 sequence (P47871 26-477): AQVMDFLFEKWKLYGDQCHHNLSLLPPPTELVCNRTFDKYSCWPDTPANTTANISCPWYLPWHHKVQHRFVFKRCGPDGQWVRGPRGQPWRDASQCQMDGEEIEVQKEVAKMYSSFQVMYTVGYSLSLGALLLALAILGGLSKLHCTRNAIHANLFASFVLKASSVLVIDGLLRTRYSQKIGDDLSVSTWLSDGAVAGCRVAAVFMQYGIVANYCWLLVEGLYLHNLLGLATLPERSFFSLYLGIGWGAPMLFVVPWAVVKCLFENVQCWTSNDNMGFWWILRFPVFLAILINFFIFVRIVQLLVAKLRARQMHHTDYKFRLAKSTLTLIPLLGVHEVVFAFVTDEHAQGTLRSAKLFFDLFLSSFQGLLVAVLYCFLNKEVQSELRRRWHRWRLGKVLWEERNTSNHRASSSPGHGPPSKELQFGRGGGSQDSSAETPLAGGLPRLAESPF
Sequence of hGLP-1R (P43220 24-463): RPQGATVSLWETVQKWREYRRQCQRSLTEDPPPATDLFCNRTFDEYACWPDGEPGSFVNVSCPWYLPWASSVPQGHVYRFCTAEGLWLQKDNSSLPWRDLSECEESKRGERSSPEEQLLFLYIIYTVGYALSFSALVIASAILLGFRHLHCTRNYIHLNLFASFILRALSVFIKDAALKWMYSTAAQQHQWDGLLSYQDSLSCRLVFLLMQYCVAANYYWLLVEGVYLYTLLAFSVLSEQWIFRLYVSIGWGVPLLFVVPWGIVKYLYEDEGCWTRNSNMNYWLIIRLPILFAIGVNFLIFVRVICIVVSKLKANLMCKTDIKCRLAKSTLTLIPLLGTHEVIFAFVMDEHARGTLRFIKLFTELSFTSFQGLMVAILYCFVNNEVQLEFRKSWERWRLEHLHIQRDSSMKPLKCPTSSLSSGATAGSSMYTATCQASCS

The term Emax denotes the greatest response seen or fitted, relative to the assay's reference. In general, EC50 refers to the concentration at which the effect is half-maximal. For the molecule `CC[C@H](C)[C@H](NC(=O)[C@H](CC(C)C)NC(=O)[C@](C)(Cc1ccc(O)cc1)NC(=O)[C@@H](CCC(=O)O)NC(=O)[C@@H](NC(=O)[C@H](Cc1ccccc1)NC(=O)[C@H](CCC(=O)O)NC(=O)[C@H](Cc1ccncc1)NC(=O)[C@H](CCC(N)=O)NC(=O)[C@H](C)NC(=O)[C@H](CCCCNC(=O)COCCOCCNC(=O)COCCOCCNC(=O)CC[C@H](NC(=O)CCCCCCCCCCCCC(=O)O)C(=O)O)NC(=O)[C@H](CCCN)NC(=O)[C@H](CC(=O)O)NC(=O)[C@H](CC(C)C)NC(=O)[C@](C)(CC(C)C)NC(=O)[C@@H](NC(=O)[C@H](CO)NC(=O)[C@H](Cc1ccncc1)NC(=O)[C@H](CC(=O)O)NC(=O)[C@H](CO)NC(=O)[C@@H](NC(=O)[C@](C)(Cc1ccccc1F)NC(=O)[C@@H](NC(=O)CNC(=O)[C@H](CCC(=O)O)NC(=O)C(C)(C)NC(=O)[C@@H](N)Cc1ccc(O)cc1)[C@@H](C)O)[C@@H](C)O)[C@@H](C)CC)[C@@H](C)CC)C(=O)N[C@@H](CCC(=O)O)C(=O)NCC(=O)NCC(=O)N[C@@H](CCCCNC(=O)COCCOCCNC(=O)COCCOCCNC(=O)CC[C@H](NC(=O)CCCCCCCCCCCCC(=O)O)C(=O)O)C(=O)N[C@@H](CO)C(=O)N[C@@H](CO)C(=O)NCC(=O)N[C@@H](C)C(=O)N1CCC[C@H]1C(=O)N1CCC[C@H]1C(=O)N1CCC[C@H]1C(=O)N[C@@H](CO)C(N)=O` [Example 156], the maximal response (Emax) in experiment [1] (HEK293, percent of maximal response to GLP-1(7-36)NH2, 37° C., 0.1% bovine casein, arithmetic mean, read-out: hGLP-1R Emax, % ± SEM) came out at 110%; in experiment [2] (HEK293, percent of maximal response to GIP(1-42)NH2, 37° C., 0.1% bovine casein, arithmetic mean, read-out: hGIPR Emax, % ± SEM) it was 89.9%. Further, in experiment [3] (cAMP, incubated at 37° C., 0.1% bovine casein (no human serum albumin), read-out: hGCGR EC50, nM (SEM, n)), the EC50 was over 9950 nM.
For `CC[C@H](C)[C@H](NC(=O)[C@H](CCCN)NC(=O)[C@H](CC(=O)O)NC(=O)[C@H](CC(C)C)NC(=O)[C@](C)(CC(C)C)NC(=O)[C@@H](NC(=O)C(C)(C)NC(=O)[C@@H](NC(=O)[C@H](CC(=O)O)NC(=O)[C@H](CO)NC(=O)[C@@H](NC(=O)[C@](C)(Cc1ccccc1F)NC(=O)[C@@H](NC(=O)CNC(=O)[C@H](CCC(=O)O)NC(=O)C(C)(C)NC(=O)[C@@H](N)Cc1ccc(O)cc1)[C@@H](C)O)[C@@H](C)O)C(C)C)[C@@H](C)CC)C(=O)N[C@@H](C)C(=O)N[C@@H](CCC(N)=O)C(=O)NC(C)(C)C(=O)N[C@@H](CCC(=O)O)C(=O)N[C@@H](Cc1ccccc1)C(=O)N[C@H](C(=O)N[C@@H](CCCCNC(=O)COCCOCCNC(=O)COCCOCCNC(=O)CC[C@H](NC(=O)CCCCCCCCCCOc1ccc(C(=O)O)cc1)C(=O)O)C(=O)N[C@@](C)(Cc1ccc(O)cc1)C(=O)N[C@@H](CC(C)C)C(=O)N[C@H](C(=O)N[C@@H](CCCCNC(=O)COCCOCCNC(=O)COCCOCCNC(=O)CC[C@H](NC(=O)CCCCCCCCCCOc1ccc(C(=O)O)cc1)C(=O)O)C(=O)NCC(=O)NCC(=O)N1CCC[C@H]1C(=O)N[C@@H](CO)C(=O)N[C@@H](CO)C(=O)NCC(=O)N[C@@H](C)C(=O)N1CCC[C@H]1C(=O)N1CCC[C@H]1C(=O)N1CCC[C@H]1C(=O)N[C@@H](CO)C(N)=O)[C@@H](C)CC)[C@@H](C)CC` [Example 313], the maximum response (Emax) in experiment [1] (setting [4]) was 95%. In addition, the EC50 is 1.13 nM in experiment [1] (setting [5]), 0.00781 nM in experiment [2] (setting [5]), over 9950 nM in experiment [3] (setting [6]) and over 9950 nM in experiment [3] (setting [7]).
As to `CC[C@H](C)[C@H](NC(=O)[C@H](CCCN)NC(=O)[C@H](CC(=O)O)NC(=O)[C@H](CC(C)C)NC(=O)[C@](C)(CC(C)C)NC(=O)[C@@H](NC(=O)[C@H](CO)NC(=O)[C@H](Cc1ccc2ccccc2c1)NC(=O)[C@H](CC(=O)O)NC(=O)[C@H](CO)NC(=O)[C@@H](NC(=O)[C@](C)(Cc1ccccc1F)NC(=O)[C@@H](NC(=O)CNC(=O)[C@H](CCC(=O)O)NC(=O)C(C)(C)NC(=O)[C@@H](N)Cc1ccc(O)cc1)[C@@H](C)O)[C@@H](C)O)[C@@H](C)CC)C(=O)N[C@@H](C)C(=O)N[C@@H](CCC(N)=O)C(=O)NC(C)(C)C(=O)N[C@@H](CCC(=O)O)C(=O)N[C@@H](Cc1ccccc1)C(=O)N[C@H](C(=O)N[C@@H](CCCCNC(=O)COCCOCCNC(=O)COCCOCCNC(=O)CC[C@H](NC(=O)CCCCCCCCCOc1ccc(C(=O)O)cc1)C(=O)O)C(=O)N[C@@](C)(Cc1ccc(O)cc1)C(=O)N[C@@H](CC(C)C)C(=O)N[C@H](C(=O)N[C@@H](CCCCNC(=O)COCCOCCNC(=O)COCCOCCNC(=O)CC[C@H](NC(=O)CCCCCCCCCOc1ccc(C(=O)O)cc1)C(=O)O)C(=O)NCC(=O)NCC(=O)N1CCC[C@H]1C(=O)N[C@@H](CO)C(=O)N[C@@H](CO)C(=O)NCC(=O)N[C@@H](C)C(=O)N1CCC[C@H]1C(=O)N1CCC[C@H]1C(=O)N1CCC[C@H]1C(=O)N[C@@H](CO)C(N)=O)[C@@H](C)CC)[C@@H](C)CC` [Example 283], the figures for the Emax in experiment [1] (setting [4]) and in experiment [2] (setting [8]) were 96.6% and 114%, respectively. In addition, the EC50 was 1.14 nM in experiment [1] (setting [5]), over 9950 nM in experiment [3] (setting [6]) and over 9950 nM in experiment [3] (setting [7]).
Take `CC[C@H](C)[C@H](NC(=O)[C@H](CCCN)NC(=O)[C@H](CC(=O)O)NC(=O)[C@H](CC(C)C)NC(=O)[C@](C)(CC(C)C)NC(=O)[C@@H](NC(=O)[C@H](CO)NC(=O)[C@H](Cc1ccncc1)NC(=O)[C@H](CC(=O)O)NC(=O)[C@H](CO)NC(=O)[C@@H](NC(=O)[C@](C)(Cc1ccccc1F)NC(=O)[C@@H](NC(=O)CNC(=O)[C@H](CCC(=O)O)NC(=O)C(C)(C)NC(=O)[C@@H](N)Cc1ccc(O)cc1)[C@@H](C)O)[C@@H](C)O)[C@@H](C)CC)C(=O)N[C@@H](C)C(=O)N[C@@H](CCC(N)=O)C(=O)NC(C)(C)C(=O)N[C@@H](CCCCNC(=O)COCCOCCNC(=O)COCCOCCNC(=O)CC[C@H](NC(=O)CCCCCCCCCCCCC(=O)O)C(=O)O)C(=O)N[C@@H](Cc1ccccc1)C(=O)N[C@H](C(=O)N[C@@H](CCCCNC(=O)COCCOCCNC(=O)COCCOCCNC(=O)CC[C@H](NC(=O)CCCCCCCCCCCCC(=O)O)C(=O)O)C(=O)N[C@@](C)(Cc1ccc(O)cc1)C(=O)N[C@@H](CC(C)C)C(=O)N[C@H](C(=O)N[C@@H](CCC(=O)O)C(=O)NCC(=O)NCC(=O)N1CCC[C@H]1C(=O)N[C@@H](CO)C(=O)N[C@@H](CO)C(=O)NCC(=O)N[C@@H](C)C(=O)N1CCC[C@H]1C(=O)N1CCC[C@H]1C(=O)N1CCC[C@H]1C(=O)N[C@@H](CO)C(N)=O)[C@@H](C)CC)[C@@H](C)CC` [Example 69]: the EC50 was 18.9 nM in experiment [1] (setting [9]); 2.32 nM in experiment [2] (setting [9]); 0.0265 nM in experiment [2] (cAMP, incubated at 37° C., 0.1% bovine casein (no human serum albumin)); over 9950 nM in experiment [3] (setting [6]); over 9950 nM in experiment [3] (hGCGR EC50, nM (SEM, n), cAMP, incubated at 37° C., 0.1% bovine casein (no human serum albumin)). The Emax in experiment [2] (setting [8]) worked out at 86.8%; in experiment [2] (HEK293, read-out: hGIPR Emax, % ± SEM, percent of maximal response to GIP(1-42)NH2, 37° C., 0.1% bovine casein, arithmetic mean), 99 ± 2.43%.
